pIC50: −log10 of the molar value.
Columns and labels:
KDM5A/B = assay: In vitro cell-based assay: immuno-blot quantification of tri-methyl H3K4 in ZR-75-1 breast cancer cells; settings: 72 hours, tri-methyl H3K4 level relative to GAPDH, percent of DMSO, read-out: Cellular IC50
From the text: An assay to measure the degree of cellular inhibition of KDM5A and 5B was developed. This quantitative immuno-blotting assay measures the amount tri-methylated histone H3 at amino acid Lysine number 4, a specific substrate […] of the direct enzymatic activity of the histone demethylases KDM5A and KDM5B from extracts of the ZR-75-1 breast cancer cell line.
This assay is a fluorometric immunoassay for the quantification of tri-methyl H3K4 extracted from cells treated with test compound and is used as a measure of the cellular inhibition of KDM5A/B.
ZR-75-1 (PTEN null, ER+) breast cancer cells numbering 50,000 (ATCC) were seeded into each well of a 96-well tissue culture treated plate and then exposed to an 11 point dilution of test compound with final concentration ranges of test compound ranging from 1250 μM to 10 nM. Cells were left in the presence of test compound for 72 hours. Extracts were prepared containing all of the cellular histone material using detergent based lysis and sonication methods. These lysates were subsequently normalized for total protein content using a colorimetric bicinchonic acid assay (MicroBCA Pierce/Thermo Scientific). Normalized cell extracts were then subjected to typical immuno-blotting procedures using NuPage reagents (Life Technologies). Electrophoretically separated histones were then transferred and immobilized using polyvinylidene difluoride membrane (Immobilon-FL Millipore). The amount of tri-methylated lysine 4 of histone H3 was detected using an antibody specific to the tri-methylated state (Cell Signaling Technologies) and quantified on an infrared imager using a densitometry software package (Odyssey CLx, Image Studio, Li-Cor). This background subtracted densitometry value was reported as a ration of the GAPDH amount for that sample and then calculated as a percent of the DMSO treated sample. The software package XL-fit (IDBS) was then used to calculate a relative IC50 value for the dilution series of a given test compound according to the equation: fit=(D+((Vmax*(x^n))/((x^n)+(Km^n)))).

JMJD2C = target: T1, JMJD2C (Homo sapiens, UniProt Q9H3R0); assay: JMJD2C in vitro enzyme inhibition assay (TR-FRET); assay type: biochemical
T1 construct: purchased BPS Bioscience 50105
T1 sequence (Q9H3R0 2-372): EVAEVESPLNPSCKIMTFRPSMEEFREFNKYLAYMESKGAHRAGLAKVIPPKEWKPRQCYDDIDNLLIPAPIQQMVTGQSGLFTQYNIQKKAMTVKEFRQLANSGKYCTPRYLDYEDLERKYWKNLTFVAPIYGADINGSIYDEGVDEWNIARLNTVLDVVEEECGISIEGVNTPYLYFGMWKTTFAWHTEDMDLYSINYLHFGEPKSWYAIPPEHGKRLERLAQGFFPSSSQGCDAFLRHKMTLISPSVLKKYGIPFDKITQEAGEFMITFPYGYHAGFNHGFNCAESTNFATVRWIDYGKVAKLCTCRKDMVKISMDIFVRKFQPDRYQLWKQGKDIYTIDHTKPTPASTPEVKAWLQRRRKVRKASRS
How it was run: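 IC50 came from 665/615 TR-FRET ratios (Eu-anti-H3K9me2 antibody, streptavidin-APC, EDTA quench) over 11-point inhibitor series. Reactions ran 30 min at room temperature: 0.3 nM JMJD2C (AA 2-372, baculovirus), 300 nM biotinylated H3K9me3 peptide, 2 μM alpha-ketoglutarate, 2 μM Fe(II), ascorbate, pH 7.3.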

| SMILES | pIC50 (KDM5A/B) | pIC50 (JMJD2C) |
| --- | --- | --- |
| Oc1nc(OCCC(F)(F)F)nc2cnccc12 [Example 13, 2-(3,3,3-trifluoropropoxy)pyrido[3,4-d]pyrimidin-4-ol] | < 5.00 | 6.00 to 7.00 |
| CC(C)COc1nc(O)c2ccncc2n1 [Example 14, 2-(2-methylpropoxy)pyrido[3,4-d]pyrimidin-4-ol] |  | 6.00 to 7.00 |
| CC(C)CCOc1nc(O)c2ccncc2n1 [Example 15, 2-(3-methylbutoxy)pyrido[3,4-d]pyrimidin-4-ol] | < 5.00 | 6.00 to 7.00 |
| CCC(C)COc1nc(O)c2ccncc2n1 (centres unmarked) [Example 16, 2-(2-methylbutoxy)pyrido[3,4-d]pyrimidin-4-ol] |  | 6.00 to 7.00 |
| CC(COc1nc(O)c2ccncc2n1)c1ccccc1 (centres unmarked) [Example 17, 2-(2-phenylpropoxy)pyrido[3,4-d]pyrimidin-4-ol] |  | 6.00 to 7.00 |
| Oc1nc(OCCc2ccccc2)nc2cnccc12 [Example 18, 2-(2-phenylethoxy)pyrido[3,4-d]pyrimidin-4-ol] | 5.00 to 6.00 | 6.00 to 7.00 |
| CC(Cc1ccccc1)Oc1nc(O)c2ccncc2n1 (centres unmarked) [Example 19, 2-(1-phenylpropan-2-yloxy)pyrido[3,4-d]pyrimidin-4-ol] |  | 5.00 to 6.00 |
| Oc1nc(OCCCC(F)(F)F)nc2cnccc12 [Example 20, 2-(4,4,4-trifluorobutoxy)pyrido[3,4-d]pyrimidin-4-ol] | < 5.00 | 6.00 to 7.00 |
| CN(C)CCCOc1nc(O)c2ccncc2n1 [Example 21, 2-[3-(dimethylamino)propoxy]pyrido[3,4-d]pyrimidin-4-ol] |  | 6.00 to 7.00 |
| COCCOc1nc(O)c2ccncc2n1 [Example 22, 2-(2-methoxyethoxy)pyrido[3,4-d]pyrimidin-4-ol] |  | 6.00 to 7.00 |
| Cn1cnc(-c2nccc3c(O)nc(OCc4ccccc4C(F)(F)F)nc23)c1 [Example 107, 8-(1-methyl-1H-imidazol-4-yl)-2-{[2-(trifluoromethyl)phenyl]methoxy}pyrido[3,4-d]pyrimidin-4-ol] |  | 6.00 to 7.00 |
| Cn1cnc(-c2nccc3c(O)nc(O[C@H](c4ccccc4)C(F)(F)F)nc23)c1 [Example 108, 8-(1-methyl-1H-imidazol-4-yl)-2-[(1R)-2,2,2-trifluoro-1-phenylethoxy]pyrido[3,4-d]pyrimidin-4-ol] |  | 6.00 to 7.00 |
| Cn1cnc(-c2nccc3c(O)nc(O[C@@H](c4ccccc4)C(F)(F)F)nc23)c1 [Example 109, 8-(1-methyl-1H-imidazol-4-yl)-2-[(1S)-2,2,2-trifluoro-1-phenylethoxy]pyrido[3,4-d]pyrimidin-4-ol] |  | 6.00 to 7.00 |
| CCC(Oc1nc(O)c2ccnc(-c3cn(C)cn3)c2n1)C(F)(F)F (centres unmarked) [Example 110, 8-(1-methyl-1H-imidazol-4-yl)-2-[(1,1,1-trifluorobutan-2-yl)oxy]pyrido[3,4-d]pyrimidin-4-ol] |  | 5.00 to 6.00 |
| Cn1cnc(-c2nccc3c(O)nc(OCc4ccc(C(F)(F)F)cc4)nc23)c1 [Example 111, 8-(1-methyl-1H-imidazol-4-yl)-2-{[4-(trifluoromethyl)phenyl]methoxy}pyrido[3,4-d]pyrimidin-4-ol] |  | 6.00 to 7.00 |
| Cn1cnc(-c2nccc3c(O)nc(OCc4ccc(Cl)cc4)nc23)c1 [Example 112, 2-[(4-chlorophenyl)methoxy]-8-(1-methyl-1H-imidazol-4-yl)pyrido[3,4-d]pyrimidin-4-ol] |  | 6.00 to 7.00 |
| Oc1nc(OCc2ccc(C(F)(F)F)cc2)nc2cnccc12 [Example 170, 2-{[4-(trifluoromethyl)phenyl]methoxy}pyrido[3,4-d]pyrimidin-4-ol] |  | 5.00 to 6.00 |
| Oc1nc(OCc2c(Cl)cccc2Cl)nc2cnccc12 [Example 172, 2-[(2,6-dichlorophenyl)methoxy]pyrido[3,4-d]pyrimidin-4-ol] |  | 5.00 to 6.00 |
| Oc1nc(OCCc2ccc(Cl)cc2)nc2cnccc12 [Example 174, 2-[2-(4-chlorophenyl)ethoxy]pyrido[3,4-d]pyrimidin-4-ol] |  | 6.00 to 7.00 |
| Oc1nc(OC(c2ccccc2)C(F)(F)F)nc2cnccc12 (centres unmarked) [Example 176, 2-(2,2,2-trifluoro-1-phenylethoxy)pyrido[3,4-d]pyrimidin-4-ol] |  | ≥ 7.00 |

More lines, now with the values ahead:

| pIC50 (KDM5A/B) | pIC50 (JMJD2C) | SMILES |
| --- | --- | --- |
| 6.00 to 7.00 | ≥ 7.00 | O=S(=O)(C1CC1)N1CCCC(n2cc(Oc3nc(O)c4ccncc4n3)cn2)C1 (stereo in doubt) [Example 151, 2-({1-[(3S)-1-(cyclopropanesulfonyl)piperidin-3-yl]-1H-pyrazol-4-yl}oxy)pyrido[3,4-d]pyrimidin-4-ol] |
|  | ≥ 7.00 | Oc1nc(Oc2cnn(C3CCCN(c4ccc(F)cc4)C3)c2)nc2cnccc12 (stereo in doubt) [Example 169, 2-({1-[(3R)-1-(4-fluorophenyl)piperidin-3-yl]-1H-pyrazol-4-yl}oxy)pyrido[3,4-d]pyrimidin-4-ol] |
| 6.00 to 7.00 | ≥ 7.00 | Cn1cnc(-c2nccc3c(O)nc(Oc4ccc(Cl)c(Cl)c4)nc23)c1 [Example 113, 2-(3,4-dichlorophenoxy)-8-(1-methyl-1H-imidazol-4-yl)pyrido[3,4-d]pyrimidin-4-ol] |
|  | ≥ 7.00 | Oc1nc(Oc2ccc(Cl)c(Cl)c2)nc2cnccc12 [Example 114, 2-(3,4-dichlorophenoxy)pyrido[3,4-d]pyrimidin-4-ol] |
| 5.00 to 6.00 | ≥ 7.00 | CCC(c1ccccc1)n1cc(Oc2nc(O)c3ccncc3n2)cn1 (centres unmarked) [Example 115, 2-{[1-(1-phenylpropyl)-1H-pyrazol-4-yl]oxy}pyrido[3,4-d]pyrimidin-4-ol] |
|  | ≥ 7.00 | Oc1nc(Oc2cnn(C(c3ccccc3)C3CC3)c2)nc2cnccc12 (centres unmarked) [Example 116, 2-({1-[cyclopropyl(phenyl)methyl]-1H-pyrazol-4-yl}oxy)pyrido[3,4-d]pyrimidin-4-ol] |
| 5.00 to 6.00 | ≥ 7.00 | C[C@H](c1ccccc1)n1cc(Oc2nc(O)c3ccncc3n2)cn1 [Example 117, 2-({1-[(1R)-1-phenylethyl]-1H-pyrazol-4-yl}oxy)pyrido[3,4-d]pyrimidin-4-ol] |
|  | ≥ 7.00 | Oc1nc(Oc2cnn(C3CCN(Cc4ccccc4)CC3)c2)nc2cnccc12 [Example 123, 2-{[1-(1-benzylpiperidin-4-yl)-1H-pyrazol-4-yl]oxy}pyrido[3,4-d]pyrimidin-4-ol] |
|  | ≥ 7.00 | O=C(C1CCNCC1)N1CC[C@H](n2cc(Oc3nc(O)c4ccncc4n3)cn2)C1 [Example 143, 2-({1-[(3S)-1-(piperidine-4-carbonyl)pyrrolidin-3-yl]-1H-pyrazol-4-yl}oxy)pyrido[3,4-d]pyrimidin-4-ol] |
|  | ≥ 7.00 | CNCC(=O)N1CC[C@H](n2cc(Oc3nc(O)c4ccncc4n3)cn2)C1 [Example 144, 1-[(3S)-3-[4-({4-hydroxypyrido[3,4-d]pyrimidin-2-yl}oxy)-1H-pyrazol-1-yl]pyrrolidin-1-yl]-2-(methylamino)ethan-1-one] |
|  | ≥ 7.00 | Oc1nc(Oc2cnn([C@@H]3CCCNC3)c2)nc2cnccc12 [Example 149, 2-({1-[(3R)-piperidin-3-yl]-1H-pyrazol-4-yl}oxy)pyrido[3,4-d]pyrimidin-4-ol] |
|  | ≥ 7.00 | O=S(=O)(c1ccccc1)N1CCC[C@@H](n2cc(Oc3nc(O)c4ccncc4n3)cn2)C1 [Example 152, 2-({1-[(3R)-1-(benzenesulfonyl)piperidin-3-yl]-1H-pyrazol-4-yl}oxy)pyrido[3,4-d]pyrimidin-4-ol] |
|  | ≥ 7.00 | Oc1nc(Oc2cnn([C@H]3CCCNC3)c2)nc2cnccc12 [Example 160, 2-({1-[(3S)-piperidin-3-yl]-1H-pyrazol-4-yl}oxy)pyrido[3,4-d]pyrimidin-4-ol] |
|  | ≥ 7.00 | Oc1nc(OCc2ccccc2Cl)nc2cnccc12 [Example 171, 2-[(2-chlorophenyl)methoxy]pyrido[3,4-d]pyrimidin-4-ol] |
|  | ≥ 7.00 | Oc1nc(OCc2cccc(Cl)c2Cl)nc2cnccc12 [Example 173, 2-[(2,3-dichlorophenyl)methoxy]pyrido[3,4-d]pyrimidin-4-ol] |
|  | ≥ 7.00 | Oc1nc(OCCc2ccc(Cl)c(Cl)c2)nc2cnccc12 [Example 175, 2-[2-(3,4-dichlorophenyl)ethoxy]pyrido[3,4-d]pyrimidin-4-ol] |
